What was measured:
isolated rat aortic arch = conditions: for pD2′ (functional inhibitory potency): Wistar rat aortic arch rings, 20 min incubation with test compound before cumulative doses of human urotensin II
Experimental: 2) Inhibition of Human Urotensin II-Induced Contractions of Isolated Rat Aortic Arch Adult Wistar rats are anesthetized (CO2 inhalation) and exsanguinated. The aortic arch is excised, dissected and cut in 3 rings of 3 mm, ring #1 being the more proximal and ring #3 being the more distal. Each ring is suspended in a 10 mL isolated organ bath filled with Krebs-Henseleit solution (in mM; NaCl 115, KCl 4.7, MgSO4 1.2, KH2PO4 1.5, NaHCO3 25, CaCl2 2.5, glucose 10; pH 7.4) kept at 37° C. and gassed with 95% O2 and 5% CO2. The rings are connected to force transducers and isometric tension is recorded (EMKA Technologies SA, Paris, France). The rings are stretched to a resting tension of 3 g. […] The functional inhibitory potency of the test compound is assessed by calculating the pD2′ according to the formula: pD2′=Log (CR-1)-Log [B], where CR is the ratio of the maximal effect without/with antagonist and [B] the concentration of the antagonist.

[1] = molecular target: T1, urotensin II receptor on TE-671 rhabdomyosarcoma cells (Homo sapiens, UniProt Q9UKP6); experiment: Inhibition of human [125I]-urotensin II binding to a rhabdomyosarcoma cell line (whole cell binding); conditions: TE-671 whole cells, 20 pM human [125I]urotensin II, 4 h at 20° C.
T1 construct: host or cells: TE-671 rhabdomyosarcoma cells
T1 sequence (Q9UKP6 1-389): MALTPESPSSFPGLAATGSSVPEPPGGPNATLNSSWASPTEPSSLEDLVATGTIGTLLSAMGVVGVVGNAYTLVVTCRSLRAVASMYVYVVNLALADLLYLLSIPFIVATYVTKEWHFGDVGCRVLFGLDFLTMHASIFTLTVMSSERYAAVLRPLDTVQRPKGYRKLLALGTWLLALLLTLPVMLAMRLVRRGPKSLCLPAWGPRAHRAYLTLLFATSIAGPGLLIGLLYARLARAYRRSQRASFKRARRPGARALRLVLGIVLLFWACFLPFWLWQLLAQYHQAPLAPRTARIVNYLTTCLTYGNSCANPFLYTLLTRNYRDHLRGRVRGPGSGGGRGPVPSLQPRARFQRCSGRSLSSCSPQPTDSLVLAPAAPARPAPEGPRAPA
Experimental: 1) Inhibition of Human [125I]-urotensin II Binding to a Rhabdomyosarcoma Cell Line
Whole cell binding of human [^125I]-urotensin II is performed using human-derived TE-671 rhabdomyosarcoma cells (Deutsche Sammlung von Mikroorganismen und Zellkulturen, cell line #ACC-263), by methods adapted from a whole cell endothelin binding assay (Breu V et al., In vitro characterization of Ro-46-2005, a novel synthetic non-peptide antagonist of ETA and ETB receptors. FEBS Lett. 1993, 334, 210-214).
The assay is performed in 250 μL Dubecco's modified eagle medium, pH 7.4 (GIBCO BRL, CatNo 31885-023), including 25 mM HEPES (Fluka, CatNo 05473), 1.0% DMSO (Fluka, CatNo 41644) and 0.5% (w/v) BSA Fraction V (Fluka, CatNo 05473) in polypropylene microtiter plates (Nunc, CatNo 442587). 300,000 suspended cells are incubated with gentle shaking for 4 h at 20° C. with 20 pM human [^125I]Urotensin II (Anawa Trading SA, Wangen, Switzerland, 2130 Ci/mmol) and increasing concentrations of unlabeled antagonist. Minimum and maximum binding are derived from samples with and without 100 nM unlabelled U-II, respectively. After the 4 h incubation period, the cells are filtered onto GF/C filter plates (Packard, CatNo 6005174). The filter plates are dried, and then 50 μL scintillation cocktail (Packard, MicroScint 20, CatNo 6013621) is added to each well. The filter plates are counted in a microplate counter (Packard Bioscience, TopCount NXT).
All test compounds are dissolved and diluted in 100% DMSO. A […] dilution into assay buffer is performed prior to addition to the assay. […] Specific binding is the difference between maximum binding and minimum binding, as described above.

Row | IC50 [1] | EC50 (isolated rat aortic arch) | SMILES | pD2′ (functional inhibitory potency) (isolated rat aortic arch)
1 | – | – | COc1ccc(CC2c3c(OC)ccc(OC)c3CCN2CCNC(=O)Nc2ccnc3ccccc23)cc1OC (stereo not shown) [Example 93, 1-{2-[1-(3,4-Dimethoxy-benzyl)-5,8-dimethoxy-3,4-dihydro-1H-isoquinolin-2-yl]-ethyl}-3-quinolin-4-yl-urea] | 5.45
2 | 550 nM | – | COc1cc2c(c(OC)c1)C(Cc1ccc(OC)c(OC)c1)N(CCNC(=O)Nc1cc(C)nc3ccccc13)CC2 (stereo not shown) [Example 58, 1-{2-[1-(3,4-Dimethoxy-benzyl)-6,8-dimethoxy-3,4-dihydro-1H-isoquinolin-2-yl]-ethyl}-3-(2-methyl-quinolin-4-yl)-urea] | –
3 | 67 nM | – | COc1cc2c(cc1OC)C(CCc1cc(F)ccc1F)N(CCNC(=O)Nc1cc(C)nc3ccccc13)CC2 (stereo not shown) [Example 20, 1-(2-{1-[2-(2,5-Difluoro-phenyl)-ethyl]-6,7-dimethoxy-3,4-dihydro-1H-isoquinolin-2-yl}-ethyl)-3-(2-methyl-quinolin-4-yl)-urea] | –
4 | 125 nM | – | COc1cc2c(cc1OC)C(CCc1ccccc1)N(CCNC(=O)Nc1cc(C)nc3ccccc13)CC2 (stereo not shown) [Example 29, 1-[2-(6,7-Dimethoxy-1-phenethyl-3,4-dihydro-1H-isoquinolin-2-yl)-ethyl]-3-(2-methyl-quinolin-4-yl)-urea] | 5.23
5 | 63 nM | – | COc1ccc(CCC2c3cc(OC)c(OC)cc3CCN2CCNC(=O)Nc2cc(C)nc3ccccc23)cc1OC (stereo not shown) [Example 22, 1-(2-{1-[2-(3,4-Dimethoxy-phenyl)-ethyl]-6,7-dimethoxy-3,4-dihydro-1H-isoquinolin-2-yl}-ethyl)-3-(2-methyl-quinolin-4-yl)-urea] | –
6 | – | 1.09 ± 0.1 nM | CC(C)[C@H](NC(=O)[C@@H]1CSSC[C@H](NC(=O)[C@H](CC(=O)O)NC(=O)[C@@H]2CCCN2C(=O)[C@@H](NC(=O)[C@@H](N)CCC(=O)O)[C@@H](C)O)C(=O)N[C@@H](Cc2ccccc2)C(=O)N[C@@H](Cc2c[nH]c3ccccc23)C(=O)N[C@@H](CCCCN)C(=O)N[C@@H](Cc2ccc(O)cc2)C(=O)N1)C(=O)O [human U-II, reference compound] | –

From US6815451B2, “1,2,3,4-Tetrahydroisoquinolines derivatives as urotensin II receptor antagonists” (Actelion Pharmaceuticals Ltd., priority 2001, dated 2004)
